Source: BindingDB's records for doi:10.1021/jm021050c (Universit&#233, 2003)

Target: imidazoline I2 binding site (Oryctolagus cuniculus)
Experiment: In vitro binding affinity determined against imidazoline receptor I-2 using rabbit kidney preparation

**Q.** With `c1cc2c3c(c1)OC(C1=NCCN1)CN3CCCC2` (stereo unspecified) [2-(4,5-Dihydro-1H-imidazol-2-yl)-1,2,7,8,9,10-hexahydro-3-oxa-10a-aza-cyclohepta[de]naphthalene] as the compound, how does the Ki read?
**A.** The Ki was 643 nM.

**Q.** `CN1CC(C)(C2=NCCN2)Oc2ccccc21` (stereo unspecified) [2-(4,5-Dihydro-1H-imidazol-2-yl)-2,4-dimethyl-3,4-dihydro-2H-benzo[1,4]oxazine] was tested. Which Ki did it give?
**A.** The Ki was greater than 10000 nM.

**Q.** With `c1ccc2c(c1)NCC(C1=NCCN1)O2` (stereo unspecified) [2-(4,5-Dihydro-1H-imidazol-2-yl)-3,4-dihydro-2H-benzo[1,4]oxazine] as the compound, how does the Ki read?
**A.** Its Ki is 51 nM.

**Q.** For `Cc1cccc2c1N(C)CC(C1=NCCN1)O2` (stereo unspecified) [2-(4,5-Dihydro-1H-imidazol-2-yl)-4,5-dimethyl-3,4-dihydro-2H-benzo[1,4]oxazine], which Ki is on record?
**A.** Its Ki is 470 nM.

**Q.** With `Cc1cc(C)c2c(c1)N(C)CC(C1=NCCN1)O2` (stereo unspecified) [2-(4,5-Dihydro-1H-imidazol-2-yl)-4,6,8-trimethyl-3,4-dihydro-2H-benzo[1,4]oxazine] as the compound, how does the Ki read?
**A.** The Ki was greater than 1000 nM.

**Q.** For `Cc1ccc2c(c1)OC(C1=NCCN1)CN2C` (stereo unspecified) [2-(4,5-Dihydro-1H-imidazol-2-yl)-4,7-dimethyl-3,4-dihydro-2H-benzo[1,4]oxazine], which Ki is on record?
**A.** Its Ki is 47 nM.

**Q.** For `Cc1cccc2c1OC(C1=NCCN1)CN2C` (stereo unspecified) [2-(4,5-Dihydro-1H-imidazol-2-yl)-4,8-dimethyl-3,4-dihydro-2H-benzo[1,4]oxazine], which Ki is on record?
**A.** Its Ki is 54 nM.

**Q.** `CCCC1(C2=NCCN2)CN(C)c2ccccc2O1` (stereo unspecified) [2-(4,5-Dihydro-1H-imidazol-2-yl)-4-methyl-2-propyl-3,4-dihydro-2H-benzo[1,4]oxazine] was tested. Which Ki did it give?
**A.** The Ki was 8530 nM.

**Q.** With `COC(=O)c1ccc2c(c1)N(C)CC(C1=NCCN1)O2` (stereo unspecified) [2-(4,5-Dihydro-1H-imidazol-2-yl)-4-methyl-3,4-dihydro-2H-benzo[1,4]oxazine-6-carboxylic acid methyl ester] as the compound, how does the Ki read?
**A.** Its Ki is 7 nM.

**Q.** For `CN1CC(C2=NCCN2)Oc2cc3ccccc3cc21` (stereo unspecified) [2-(4,5-Dihydro-1H-imidazol-2-yl)-4-methyl-3,4-dihydro-2H-naphtho[2,3-b][1,4]oxazine], which Ki is on record?
**A.** The Ki was 278 nM.

**Q.** Which Ki does the source give for `CCOCc1ccc2c(c1)N(C)CC(C1=NCCN1)O2` (stereo unspecified) [2-(4,5-Dihydro-1H-imidazol-2-yl)-6-ethoxymethyl-4-methyl-3,4-dihydro-2H-benzo[1,4]oxazine] here?
**A.** The Ki was 17 nM.

**Q.** For `COc1cc(=O)n2c3c(cccc13)OC(C1=NCCN1)C2` (stereo unspecified) [2-(4,5-Dihydro-1H-imidazol-2-yl)-6-methoxy-2,3-dihydro-1-oxa-3a-aza-phenalen-4-one], which Ki is on record?
**A.** Its Ki is 750 nM.

**Q.** For `Cc1ccc2c3c1CCCN3CC(C1=NCCN1)O2` (stereo unspecified) [2-(4,5-Dihydro-1H-imidazol-2-yl)-7-methyl-2,3,5,6-tetrahydro-4H-1-oxa-3a-aza-phenalene], which Ki is on record?
**A.** Its Ki is greater than 1000 nM.

**Q.** For `c1cc2c3c(c1)OC(C1=NCCN1)CN3CC2` (stereo unspecified) [4-(4,5-Dihydro-1H-imidazol-2-yl)-1,2,3,4-tetrahydro-5-oxa-2a-aza-acenaphthylene], which Ki is on record?
**A.** The Ki was 33 nM.

**Q.** How did the Ki turn out when `CN1CC(C2=NCCN2)Oc2ccc(Cl)cc21` (stereo unspecified) [6-Chloro-2-(4,5-dihydro-1H-imidazol-2-yl)-4-methyl-3,4-dihydro-2H-benzo[1,4]oxazine] was run?
**A.** The Ki was 173 nM.

**Q.** With `CN1CC(C2=NCCN2)Oc2ccc(CO)cc21` (stereo unspecified) [[2-(4,5-Dihydro-1H-imidazol-2-yl)-4-methyl-3,4-dihydro-2H-benzo[1,4]oxazin-6-yl]-methanol] as the compound, how does the Ki read?
**A.** The Ki was 100 nM.
